# Measurements taken from article PMC9107402 (European Journal of Clinical Pharmacology, 2022).
# Like-named read-outs stand apart in the source and are kept apart here.
# Key:
# [1] = cited from earlier work
# CYP3A4 = settings: cited from earlier work
# CYP3A = assay: Calculated metabolic clearance of microdosed midazolam (limited sampling AUC 2-4 h); settings: for midazolam metabolic clearance, % of the baseline value: during fluconazole
# Experimental: (§1) Blood samples were centrifuged for 10 min at 2500 g and 4 °C, and separated plasma was distributed into 4 aliquots, each stored at − 20 °C until analysis.
# Midazolam concentrations in plasma were determined by UPLC-MS/MS.
# [2] = alteration of gastric pH; cited from earlier work
# CYP2C19 [3] = assay: clinical; settings: human, in vivo; for Cl/F / Tmax: po
# Experimental: This was an open-label clinical trial with fixed sequence design consisting of a total of seven inpatient study days and eight short visits for each participant.
# The CYP2C19 perpetrator fluconazole (Fluconazol HEXAL® 200 mg, HEXAL) was given for 5 days in oral doses of 400 mg on day 1 and 200 mg on days 2 to 5. […] A diary was used to ensure correct intake of fluconazole and rifampicin at home.
# as §1
# The statistical analysis was performed using Prism 8.4 (GraphPad Software Inc., La Jolla, CA, USA).
# CYP2C19 [4] = settings: cited from earlier work
smiles,measurement,setting,value
OC(Cn1cncn1)(Cn1cncn1)c1ccc(F)cc1F [fluconazole],"effect of changes in gastric pH on fluconazole Cmax, tmax, and AUC",[1],did not affect
Cc1ncc2n1-c1ccc(Cl)cc1C(c1ccccc1F)=NC2 [midazolam],midazolam AUC decrease to % of the baseline value,CYP3A4; 600 mg rifampicin daily over 5 days,4.1%
same,increase of midazolam AUC,CYP3A4; oral 7.5 mg midazolam during fluconazole treatment,3.6 fold
same,"midazolam metabolic clearance, % of the baseline value",CYP3A; with 100 µg omeprazole,28%
same,"midazolam metabolic clearance, % of the baseline value",CYP3A; with 20 mg omeprazole,26%
same,increase of midazolam metabolic clearance,CYP3A; during rifampicin,10–12 fold
same,increase of midazolam metabolic clearance,CYP3A; rifampicin day 5,10.1 fold
same,increase of midazolam metabolic clearance,CYP3A; rifampicin day 7,11.9 fold
Cc1c(O)cccc1C(=O)N[C@@H](CSc1ccccc1)[C@H](O)CN1C[C@H]2CCCC[C@H]2C[C@H]1C(=O)NC(C)(C)C [nelfinavir],reduction of nelfinavir AUC by omeprazole,[2],approximately one third
same,reduction of nelfinavir Cmax by omeprazole,[2],approximately one third
COc1ccc2[nH]c([S+]([O-])Cc3ncc(C)c(OC)c3C)nc2c1 (stereo not shown) [omeprazole],dose-normalized Cmax,CYP2C19 [3],896 ng/mL
same,clearance,"CYP2C19 [3]; 100 ug, omeprazole clearance",476 mL/min
same,higher AUC in the poor metabolizer in comparison with the EM group,CYP2C19 [3]; 20 mg,6.5 fold
same,higher Cmax in the poor metabolizer in comparison with the EM group,CYP2C19 [3]; 20 mg,threefold
same,Cl/F,CYP2C19 [3]; 100 ug,379 mL/min
same,Tmax,CYP2C19 [3]; 100 ug,21.8 min
same,Tmax,"CYP2C19 [3]; 100 ug, tmax (harmonic mean)",15 min
same,Cl/F,CYP2C19 [3]; 20 mg,388 mL/min
same,Tmax,"CYP2C19 [3]; 20 mg, tmax (harmonic mean)",178 min
same,increase of omeprazole AUC,"CYP2C19 [4]; 100 mg fluconazole daily for 5 days, healthy volunteers",sixfold
same,increase of omeprazole AUC,CYP2C19 [4]; 8 days of 50 mg fluconazole daily,2.7–2.8 fold
same,omeprazole AUC decreased to,"CYP2C19 [4]; rifampicin 150 mg, 8 days, omeprazole microdose",22%
same,omeprazole AUC decreased to,"CYP2C19 [4]; rifampicin 150 mg, 9 days, 20 mg omeprazole",20%
same,omeprazole AUC decreased to,"CYP2C19 [4]; rifampicin 6 days, 450 mg daily, 20 mg omeprazole",12.9%
same,bioequivalence to an encapsulated formulation,CYP2C19 [4]; uncoated omeprazole with 48 mmol sodium bicarbonate,bioequivalent
